Assay results reported in patent US7700617B2, “Salt of naphthyridine carboxylic acid derivative” (LG Life Sciences, Ltd., priority 1997, dated 2010).

Assays:
Format in all cases: physicochemical
[1] = Equilibrium moisture content determination of hydrates in desiccators of controlled relative humidity; settings: for Relative humidity range with constant moisture content: FIGS. 3 and 4
Method: Six saturated aqueous salt solutions were introduced into each desiccator to control the inner relative humidity to a specific value as shown in Table 3. Then, equilibrium moisture contents of n=3 hydrate and n=1.5 hydrate of Examples 2 and 3, respectively, were determined at several relative humidities.
The sample (100 mg) was spread on a pre-weighed Petri dish and the total weight was accurately measured, then three of the sample were placed in each desiccator of Table 3. The desiccators were allowed to stand at normal temperature for 7 days and then the sample was taken to be weighed. After 13 days, one of the three samples inside each desiccator was taken and the moisture content of each was measured by the thermogravimetric analysis described in Test Example 2. Equilibrium moisture content at each relative humidity is represented in FIG. 3 (n=3 hydrate) and FIG. 4 (n=1.5 hydrate). […] Both hydrates are stable since they maintain a constant equilibrium moisture content regardless of the relative humidity change.

[2] = Observed moisture content of the methanesulfonate hydrates; settings: by hydration number (n)
From the text: The moisture content of the methanesulfonate hydrates varies with the hydration number (n) of the hydrated molecule. The methanesulfonate has a molecular weight of 485.5 thus the calculated moisture content of hydrates where n is 1, 1.5, 2, 2.5, 3, 3.5 and 4 is 3.6%, […], 6.9%, 8.5%, 10.0%, 11.5% and 12.9% respectively. However, the actual moisture content of the methanesulfonate hydrates may differ from the calculated value depending on various factors including recrystallization conditions and drying conditions.

[3] = Chemical stability at elevated temperature, decomposition by liquid chromatography; settings: for Chemical stability compared with the anhydrate: 70° C., liquid chromatography; for Thermal stability with elapsed time: at 70° C.
Method: The present inventors also compared the chemical stability under heating of the hydrates with that of the anhydrate in order to identify the influence of hydration on the chemical stability. In this test, the anhydrate and hydrate were each kept at 70° C. for 4 weeks, and the extent of decomposition is analyzed by liquid chromatography. No difference in the extent of decomposition was noticed between the hydrates and the anhydrate, and thus confirming that the hydrate has the same chemical stability as the anhydrate.
The chemical stability of the n=3 hydrate of Example 2 and the n=1.5 hydrate of Example 3 and the anhydrate of Example 1 were compared at elevated temperature in order to determine the effect on chemical stability of the extent of hydration.
The anhydrate and each of the hydrates were introduced into a glass vial and maintained at 70° C. The extent of decomposition with elapsed time was analyzed by liquid chromatography.

Structure (SMILES)	Relative humidity range with constant moisture content [1]	Water taken up ([1]; above 75% relative humidity)	Equilibrium moisture content ([1]; relative humidity 23 to 64%)	Moisture Content ([2]; listed as 1.5, hydrate)	Chemical stability compared with the anhydrate ([3]; 4 weeks)	Thermal stability with elapsed time ([3]; 1 week)	Thermal stability with elapsed time ([3]; 2 weeks)	Thermal stability with elapsed time ([3]; 3 weeks)	Thermal stability with elapsed time ([3]; 4 weeks)	Thermal stability with elapsed time ([3]; Initial)	Moisture Content [2]	Equilibrium moisture content ([1]; relative humidity 23 to 75%, about 2 weeks)
CON=C1CN(c2nc3c(cc2F)c(=O)c(C(=O)O)cn3C2CC2)CC1CN.CON=C1CN(c2nc3c(cc2F)c(=O)c(C(=O)O)cn3C2CC2)CC1CN.CS(=O)(=O)O.CS(=O)(=O)O.O.O.O (stereo not drawn) [n = 1.5 hydrate, 7-(3-aminomethyl-4-methoxyiminopyrrolidin-1-yl)-1-cyclopropyl-6-fluoro-4-oxo-1,4-dihydro-1,8-naphthyridine-3-carboxylic acid methanesulfonate n=1.5 hydrate]	23 to 64%	over 10%	around 5%	4~6 % w/w	same degree of chemical stability as the anhydrate	97.3%	95.8%	97.2%	96.2%	100%		
CON=C1CN(c2nc3c(cc2F)c(=O)c(C(=O)O)cn3C2CC2)CC1CN.CON=C1CN(c2nc3c(cc2F)c(=O)c(C(=O)O)cn3C2CC2)CC1CN.CS(=O)(=O)O.CS(=O)(=O)O.O.O.O.O.O (stereo not drawn) [n = 2.5 hydrate]											8~9 % w/w	
CON=C1CN(c2nc3c(cc2F)c(=O)c(C(=O)O)cn3C2CC2)CC1CN.CS(=O)(=O)O.O.O.O (stereo not drawn) [n = 3 hydrate, 7-(3-aminomethyl-4-methoxyiminopyrrolidin-1-yl)-1-cyclopropyl-6-fluoro-4-oxo-1,4-dihydro-1,8-naphthyridine-3-carboxylic acid methanesulfonate n=3 hydrate]	23 to 75%				same degree of chemical stability as the anhydrate	102.4%	100.7%	99.2%	99.2%	100%		around 10%
CON=C1CN(c2nc3c(cc2F)c(=O)c(C(=O)O)cn3C2CC2)CC1CN.CON=C1CN(c2nc3c(cc2F)c(=O)c(C(=O)O)cn3C2CC2)CC1CN.CS(=O)(=O)O.CS(=O)(=O)O.O.O.O.O.O.O.O (stereo not drawn) [n = 3.5 hydrate]											11~12 % w/w	
CON=C1CN(c2nc3c(cc2F)c(=O)c(C(=O)O)cn3C2CC2)CC1CN.CS(=O)(=O)O.O.O.O.O (stereo not drawn) [n = 4 hydrate]											12~13 % w/w	
